# Data from patent US20230331792A1, “NEW MULTI-FUNCTIONAL OLIGOPEPTIDES” (ENLITISA (SHANGHAI) PHARMACEUTICAL CO., LTD., priority 2019, published 2023).
# Square brackets hold non-standard residues; d marks the D form. Ends that are not written are not given here. Dopa = N[C@@H](Cc1ccc(O)c(O)c1)C(=O)O; Hyp = O=C(O)[C@@H]1C[C@@H](O)CN1
# Experiments:
# C57BL/6 mice [1] = test: Air pouch model (carrageenan-induced acute inflammation); type: in vivo; parameters: key to Inflammation score / Edema score: 1 = mild, 2 = moderate, 3 = severe
# Description: Healthy adult male C57BL/6 mice weighing between 20 and 30 g were supplied by Changzhou Cvens Experimental Animal Co. Ltd. Prior to any experiments being conducted, the mice were housed under standardized conditions (at a constant temperature or 22±2° C., with alternating 12-hour periods of light and darkness), and were fed on a standard mouse diet with water, for about a week. The mice were randomly divided into 9 groups as described in Table 4, with 7 mice in each group.
# General anaesthesia was induced using intraperitoneal delivery of 3% chloral hydrate (Sinopharm Chemical Reagent Co., Ltd., Shanghai, China); 1 mL/10 g of body weight). The hair of the entire dorsum was shaved and depilated one day before sterile air injection.
# Air pouches were produced by subcutaneous injection of sterile air (5 mL) into the intrascapular area of the mice. After three days, another injection of air (3 mL) was performed to maintain the pouches. In order to induce acute inflammation, three days after the second injection, animals received an injection of sterile carrageenan solution (CP Kelco, Taixing, Jiangsu Province, China; 1%, 0.5 mL; produced by adding 0.1 g of carrageenan powder into a beaker containing 10 mL of 0.9% saline solution and stirring). Mice were pre-treated with test samples or vehicle 1 hour before and 23 hours after the carrageenan injection into the subcutaneous air pouch. Animals were sacrificed 24 hours after the carrageenan injection.
# Skin biopsies were taken from the air pouches. A part of the biopsy was fixed in formalin (produced by adding ultra-pure water to 50 mL of a 40% formaldehyde solution (Nanchang Rain Dew Experimental Equipment Co., Ltd., Nanchang, […] Provence, China) up to a total volume of 500 mL) and analyzed by histological embedding in paraffin wax, sectioning and staining.
# The histological specimens were analyzed, and an inflammation score and an edema score were estimated. The inflammation scores were estimated by observing heamatoxylin and eosin (HE) stained slices under an optical microscope. Scores (between 1 to 3 points) were given according to the perceived inflammation level (e.g. in cases where only a small amount of inflammatory cells scattered in the area: 1 point was given (mild); in cases where many inflammatory cells were observed: 2 points were given (moderate); and, in cases with diffuse infiltration: 3 points were given (severe)). A similar scoring system was employed for edema levels (3 points for most severe and 1 point for mild) after overall observation.
# After conducting some preliminary experiments to validate the model, an experiment was conducted in which mice were treated by administering test samples or vehicle in accordance with Table 4 below. Compound A and Compound B were dissolved in saline at concentrations indicated in Table 4 below (L=low dose, M=medium dose, H=high dose).
# Compound A and Compound B were synthesized as described in Examples 8 and 7 above, respectively. The peptide powders were stored at −20° C. prior to use. Dexamethasone (Dex) was obtained from Shanghai Aladdin Bio-Chem Technology Co., Ltd., Shanghai, China.
# C57BL/6 mice [2] = test: Acute wound model (full-thickness skin wound); type: in vivo; conditions: topical 50 μL/wound once daily Day 0 to Day 7; 1.65, 16.45, 164.5 μg/wound/day
# Description: 6-8 weeks old male C57BL/6 mice were supplied by Changzhou Cvens Experimental Animal Co. Ltd. (Changzhou, Jiangsu Province, China). Prior to any experiments being conducted, mice were housed under standardized conditions at a constant temperature of 22±2° C., with alternating 12-hour periods of light and darkness, and were fed on a standard mouse diet with water, for about a week.
# General anesthesia was induced using intraperitoneal administration of 3% chloral hydrate (1 mL/10 g of body weight). The hair on the back was shaved by a baby hair shaver and depilated with cream. The skin area was wiped and sterilized with 75% alcohol twice.
# A 12 mm EMS skin biopsy punch (Electron Microscopy Sciences, P.O. Box 550, 1560 Industry Road, Hatfield, PA 19440) was used to make two round wounds on the midline of the back. The two wounds were tangential and the skin between the circles was cut along the upper and lower tangents. Scissors were used to trim the wound. The full thickness of skin was removed to reach the fascia. The wound was oval shape and was left open without suture. […]
# Photographs were taken of each wound every other day from Day 0. Photos were scanned into a computer, and wound areas calculated using ImageJ image analysis software (National Institute of Health).
# The unhealed wound area was expressed as a percentage of the original wound area: […]
# person one = test: Pain and bleeding after an operation, patient case; type: in vivo, human
# Description: Immediately after the operation, they used 0.5 mg/mL of Compound B spray (as described in Example 38 but packed into a normal spray bottle) to apply directly on the wound. The right pane in FIG. 10 was taken 1 hour after operation. […] The physician said that it would normally take a patient at least ten days to fully recover from such a procedure with standard care.
# patient [3] = test: Radiation injury in the nasal cavity, patient case; type: in vivo, human
# Description: A patient was diagnosed with paranasal sinus cancer and received radiation therapy. After two weeks treatment, they had inflammation of the nose and sinuses and felt like their nose was blocked or stuffy. The mucus in the nasal cavity and paranasal sinuses became thick and dry.
# The patient used a nasal spray comprising Compound B (see Example 7 above) dissolved in water at a concentration of 0.5 mg/mL and then packed into a nasal spray bottle, once every two hours during daytime.
# patient [4] = test: Radiation stomatitis, patient case; type: in vivo, human; conditions: 0.5 mg/mL solution as mouthwash
# Description: A patient was diagnosed with oral cancer and underwent radiation therapy.
# After 3 weeks, oral mucositis developed with ulcers on the mucous membrane lining the mouth, throat and esophagus. It was very painful and the patient was not able to eat.
# The patient then used Compound B solution (0.5 mg/mL; prepared as described in Example 38 above) as a mouthwash, as frequently as needed.
# [5] = 0.5 mg/mL spray directly on the wound, 1 hour after operation
substance,measurement,setting,value
{[(Dopa-Ala-Lys-Pro-Ser-Tyr-Hyp-Hyp-Thr-Tyr-Lys)2-Lys]2-Lys}2-Lys ([Dopa]AKPSY[Hyp][Hyp]TYKKKK; also: branched lysine dendrimer {[(peptide)2-Lys]2-Lys}2-Lys) [Compound A],Edema score,C57BL/6 mice [1]; low dose 50 μg/mouse,1.71
same,Inflammation score,C57BL/6 mice [1]; low dose 50 μg/mouse,1.86
same,Sum of the scores,C57BL/6 mice [1]; low dose 50 μg/mouse,3.57
same,Edema score,C57BL/6 mice [1]; medium dose 250 μg/mouse,1.57
same,Inflammation score,C57BL/6 mice [1]; medium dose 250 μg/mouse,1.57
same,Sum of the scores,C57BL/6 mice [1]; medium dose 250 μg/mouse,3.14
same,unhealed wound rate / wound healing (FIG. 1),C57BL/6 mice [2],significantly improve wound healing
{[(Ala-Lys-Pro-Ser-Tyr-Hyp-Hyp-Thr-DOPA-Lys)2-Lys]2-Lys}2-Lys (AKPSY[Hyp][Hyp]T[Dopa]KKKK; also: branched lysine dendrimer {[(peptide)2-Lys]2-Lys}2-Lys) [Compound B],Edema score,C57BL/6 mice [1]; low dose 50 μg/mouse,2.00
same,Inflammation score,C57BL/6 mice [1]; low dose 50 μg/mouse,1.83
same,Sum of the scores,C57BL/6 mice [1]; low dose 50 μg/mouse,3.83
same,Edema score,C57BL/6 mice [1]; medium dose 250 μg/mouse,2.14
same,Inflammation score,C57BL/6 mice [1]; medium dose 250 μg/mouse,1.80
same,Sum of the scores,C57BL/6 mice [1]; medium dose 250 μg/mouse,3.94
same,bleeding of operative wound,person one; [5],bleeding had stopped
same,pain of operative wound,person one; [5],only slight pain was felt
same,wound recovery,"person one; 0.5 mg/mL spray, one week later (standard care: at least ten days)",the wound was fully recovered
same,blocked or stuffy nose,"patient [3]; nasal spray 0.5 mg/mL once every two hours during daytime, three days later",nose became clear and was no longer stuffy
same,nasal discomfort during continued radiation therapy,"patient [3]; nasal spray 0.5 mg/mL, continuous use",nasal discomfort did not worsen
same,unhealed wound rate / wound healing (FIG. 1),C57BL/6 mice [2],significantly improve wound healing
same,course of stomatitis during continued therapy,patient [4],stomatitis did not worsen
same,duration of pain relief,patient [4],one or two hours
same,pain of oral mucositis,patient [4]; almost immediately after application,pain was very much reduced
